Test results published in patent US20240025862A1, “SUBSTITUTED N-PHENYLURACILS AND SALTS THEREOF, AND USE THEREOF AS HERBICIDAL ACTIVE SUBSTANCES” (Bayer Aktiengesellschaft, priority 2020, published 2024).

Tests used:
Type in all cases: in vivo
[1] = test system: Abutilon theophrasti (ABUTH); test: Post-emergence herbicidal action, greenhouse pot test; conditions: rated visually after about 3 weeks vs untreated controls, 100% = plants have died
Procedure, shortened: (§1)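 Greenhouse-grown weeds in sandy loam were sprayed post-emergence at the one-leaf stage, 2–3 weeks after sowing. Compounds were formulated as WP or EC in water with 0.5% additive at 600 l/ha, at rates of 20 g/ha or less. Visual rating after about 3 weeks used a scale from 0% (like untreated control) to 100% (plants dead).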

[2] = test system: Amaranthus retroflexus (AMARE); test: as above; conditions: rated visually after about 3 weeks vs untreated controls, 100% = plants have died
Procedure, shortened: as §1

Avena fatua (AVEFA) = test: as above; conditions: 20 g/ha, rated visually after about 3 weeks vs untreated controls, 100% = plants have died
Procedure, shortened: as §1

[3] = test system: Pharbitis purpurea (PHBPU); test: as above
Procedure, shortened: as §1

[4] = test system: Polygonum convolvulus (POLCO); test: as above
Procedure, shortened: as §1

Veronica persica (VERPE) = test: as above
Procedure, shortened: as §1

Viola tricolor (VIOTR) = test: as above
Procedure, shortened: as §1

[5] = test system: Alopecurus myosuroides (ALOMY); test: Post-emergence herbicidal action, greenhouse pot test (also comparative test C)
Procedure, shortened: (§2)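 Greenhouse pot plants in sandy loam were sprayed post-emergence at the one-leaf stage (2–3 weeks after sowing) with WP or EC formulations plus 0.5% additive at 600 l/ha water. Activity was rated visually after about 3 weeks versus untreated controls (100% = dead, 0% = like control); rates were 20 g/ha or less, and 5 g/ha or less in the comparative test.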

[6] = test system: Echinochloa crus-galli (ECHCG); test: as above
Procedure, shortened: as §2

[7] = test system: Matricaria inodora (MATIN); test: as above
Procedure, shortened: as §2

Setaria viridis (SETVI) = test: as above; conditions: for Post-emergence action against SETVI: 20 g/ha
Procedure, shortened: as §2

Brassica napus (BRSNW) = test: Post-emergence crop plant compatibility, greenhouse pot test; conditions: 1.25 g/ha, vs untreated controls
Procedure, shortened: (§3)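 Percent crop injury was judged by eye roughly three weeks after treatment, relative to untreated plants, where 100% meant death. Application was a post-emergence spray at the one-leaf stage, 600 l/ha water volume with 0.5% additive; letters a, b, c denote differing dose rates.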

[8] = test system: Triticum aestivum (TRZAS); test: as above; conditions: vs untreated controls
Procedure, shortened: as §3

Zea mays (ZEAMX) = test: as above; conditions: 1.25 g/ha, vs untreated controls
Procedure, shortened: as §3

Oryza sativa (ORYSA) = test: Post-emergence crop plant compatibility, greenhouse pot test (also comparative test C); conditions: for Post-emergence action against ORYSA (crop plant compatibility): vs untreated controls
Procedure, shortened: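 Rice and other crops sprayed post-emergence at one-leaf stage (2–3 weeks after sowing) with WP or EC formulations plus 0.5% additive at 600 l/ha water. Visual rating about 3 weeks later versus untreated controls (100% = dead, 0% = like control); suffixes a–c denote different doses.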

Stellaria media (STEME) = test: Post-emergence herbicidal action, greenhouse pot test
Procedure, shortened: as §1

Glycine max (GLXMA) = test: Post-emergence crop plant compatibility, greenhouse pot test
Procedure, shortened: as §3

[9] = rated visually after about 3 weeks vs untreated controls, 100% = plants have died
[10] = application rate of 5 g or less per hectare, tables C1 to C4
[11] = comparative test C, application rate 1.25 g/ha

Cn1c(C(F)(F)F)cc(=O)n(-c2cc(Oc3ccccc3OCC(=O)OC3COC3)c(Cl)cc2F)c1=O [I.7-115]
Post-emergence action at 1.25 g/ha against ABUTH in % ([1]; 1.25 g/ha): 80% | Post-emergence action at 5 g/ha against ABUTH in % [1]: 100% | Post-emergence action at 20 g/ha against ABUTH in % [1]: 100% | Post-emergence action at 1.25 g/ha against AMARE in % [2]: 100% | Post-emergence action at 5 g/ha against AMARE in % [2]: 100% | Post-emergence action at 20 g/ha against AMARE in % [2]: 100% | Post-emergence action at 20 g/ha against AVEFA in % (Avena fatua (AVEFA)): 100% | Post-emergence action against PHBPU in % ([3]; dosage 1.25 g/ha): 100% | Post-emergence action against PHBPU in % ([3]; dosage 5 g/ha): 100% | Post-emergence action against PHBPU in % ([3]; dosage 20 g/ha): 100% | Post-emergence action against POLCO in % ([4]; dosage 5 g/ha): 100% | Post-emergence action against POLCO in % ([4]; dosage 20 g/ha): 100% | Post-emergence action against VERPE (Veronica persica (VERPE); 1.25 g/ha): 100% | Post-emergence action against VERPE (Veronica persica (VERPE); 5 g/ha): 100% | Post-emergence action against VERPE (Veronica persica (VERPE); 20 g/ha): 100% | Post-emergence action against VIOTR (Viola tricolor (VIOTR); 1.25 g/ha): 100% | Post-emergence action against VIOTR (Viola tricolor (VIOTR); 5 g/ha): 100% | Post-emergence action against VIOTR (Viola tricolor (VIOTR); 20 g/ha): 100% | Post-emergence action at 5 g/ha against ALOMY in % ([5]; 5 g/ha, rated visually after about 3 weeks vs untreated controls, 100% = plants have died): 100% | Post-emergence action at 20 g/ha against ALOMY in % [5, 9]: 100% | herbicidal efficacy against ALOMY by comparison with literature compound a-17 / 3-14 [5, 10]: distinct improvement in herbicidal efficacy | Post-emergence action at 1.25 g/ha against ECHCG in % ([6]; 1.25 g/ha, rated visually after about 3 weeks vs untreated controls, 100% = plants have died): 100% | herbicidal efficacy against ECHCG by comparison with literature compound a-17 / 3-14 [6, 10]: distinct improvement in herbicidal efficacy | ECHCG (efficacy in %) [6, 11]: 100% | Post-emergence action against ECHCG in % ([6]; dosage 5 g/ha): 100% | Post-emergence action against ECHCG in % ([6]; dosage 20 g/ha): 100% | herbicidal efficacy against MATIN by comparison with literature compound a-17 / 3-14 [7, 10]: distinct improvement in herbicidal efficacy | MATIN (efficacy in %) [7, 11]: 100% | Post-emergence action against MATIN in % ([7]; dosage 1.25 g/ha): 100% | Post-emergence action against MATIN in % ([7]; dosage 5 g/ha): 100% | Post-emergence action against MATIN in % ([7]; dosage 20 g/ha): 100% | Post-emergence action against SETVI (Setaria viridis (SETVI)): 100% | herbicidal efficacy against SETVI by comparison with literature compound a-17 / 3-14 (Setaria viridis (SETVI); [10]): distinct improvement in herbicidal efficacy | SETVI (efficacy in %) (Setaria viridis (SETVI); [11]): 100% | Post-emergence action against SETVI in % (Setaria viridis (SETVI); dosage 1.25 g/ha): 100% | Post-emergence action against SETVI in % (Setaria viridis (SETVI); dosage 5 g/ha): 100% | Post-emergence action against BRSNW (crop plant compatibility) (Brassica napus (BRSNW)): 20% | Post-emergence action against TRZAS (crop plant compatibility) ([8]; 1.25 g/ha): 0% | Post-emergence action against ZEAMX (crop plant compatibility) (Zea mays (ZEAMX)): 20% | Post-emergence action against ORYSA (crop plant compatibility) (Oryza sativa (ORYSA); 1.25 g/ha): 0% | compatibility with respect to the crop plant Oryza sativa (ORYSA) by comparison with literature compound a-17 / 3-14 (Oryza sativa (ORYSA); application rate of 1.25 g per hectare, table C5): distinct improvement in compatibility | ORYSA (efficacy in %) (Oryza sativa (ORYSA); comparative test C, application rate 1.25 g/ha, crop plant compatibility): 0%

CC(Oc1ccccc1Sc1cc(-n2c(=O)cc(C(F)(F)F)n(C)c2=O)c(F)cc1Cl)C(=O)OCC1CCOC1 (mixture of isomers) [I.2-72]
Post-emergence action at 5 g/ha against ABUTH in % [1]: 100% | Post-emergence action at 20 g/ha against ABUTH in % [1]: 100% | Post-emergence action at 1.25 g/ha against AMARE in % [2]: 90% | Post-emergence action at 5 g/ha against AMARE in % [2]: 100% | Post-emergence action at 20 g/ha against AMARE in % [2]: 100% | Post-emergence action against PHBPU in % ([3]; dosage 1.25 g/ha): 100% | Post-emergence action against PHBPU in % ([3]; dosage 5 g/ha): 100% | Post-emergence action against PHBPU in % ([3]; dosage 20 g/ha): 100% | Post-emergence action against POLCO in % ([4]; dosage 5 g/ha): 80% | Post-emergence action against POLCO in % ([4]; dosage 20 g/ha): 100% | Post-emergence action against STEME (Stellaria media (STEME); 5 g/ha): 100% | Post-emergence action against STEME (Stellaria media (STEME); 20 g/ha): 100% | Post-emergence action against VERPE (Veronica persica (VERPE); 1.25 g/ha): 100% | Post-emergence action against VERPE (Veronica persica (VERPE); 5 g/ha): 100% | Post-emergence action against VERPE (Veronica persica (VERPE); 20 g/ha): 100% | Post-emergence action against VIOTR (Viola tricolor (VIOTR); 1.25 g/ha): 100% | Post-emergence action against VIOTR (Viola tricolor (VIOTR); 5 g/ha): 100% | Post-emergence action against VIOTR (Viola tricolor (VIOTR); 20 g/ha): 100% | Post-emergence action at 20 g/ha against ALOMY in % [5, 9]: 90% | Post-emergence action against ECHCG in % ([6]; dosage 5 g/ha): 80% | Post-emergence action against ECHCG in % ([6]; dosage 20 g/ha): 80% | Post-emergence action against MATIN in % ([7]; dosage 20 g/ha): 100% | Post-emergence action against SETVI (Setaria viridis (SETVI)): 100% | Post-emergence action against SETVI in % (Setaria viridis (SETVI); dosage 1.25 g/ha): 90% | Post-emergence action against SETVI in % (Setaria viridis (SETVI); dosage 5 g/ha): 100% | Post-emergence action against BRSNW (crop plant compatibility) (Brassica napus (BRSNW)): 10% | Post-emergence action against GLXMA in % (Glycine max (GLXMA); 1.25 g/ha): 0% | Post-emergence action against GLXMA in % (Glycine max (GLXMA); 5 g/ha): 10% | Post-emergence action against TRZAS (crop plant compatibility) ([8]; 1.25 g/ha): 20% | Post-emergence action against TRZAS (crop plant compatibility) ([8]; 5 g/ha): 20% | Post-emergence action against ORYSA (crop plant compatibility) (Oryza sativa (ORYSA); 1.25 g/ha): 0% | Post-emergence action against ORYSA (crop plant compatibility) (Oryza sativa (ORYSA); 5 g/ha): 20%
